For ten compounds, Kd results are on record in ChEMBL document CHEMBL3991601, “The target landscape of clinical kinase drugs” (Science, 2017).

Active and inactive are the calls of the source. Cut-off read from the data, not from the text of the source, for most assays here: actives have a measured Kd and inactives only a lower limit.

One test concerns the target T1, Ephrin type-B receptor 2 (Homo sapiens, UniProt P29323).
T1 sequence (P29323 whole entry): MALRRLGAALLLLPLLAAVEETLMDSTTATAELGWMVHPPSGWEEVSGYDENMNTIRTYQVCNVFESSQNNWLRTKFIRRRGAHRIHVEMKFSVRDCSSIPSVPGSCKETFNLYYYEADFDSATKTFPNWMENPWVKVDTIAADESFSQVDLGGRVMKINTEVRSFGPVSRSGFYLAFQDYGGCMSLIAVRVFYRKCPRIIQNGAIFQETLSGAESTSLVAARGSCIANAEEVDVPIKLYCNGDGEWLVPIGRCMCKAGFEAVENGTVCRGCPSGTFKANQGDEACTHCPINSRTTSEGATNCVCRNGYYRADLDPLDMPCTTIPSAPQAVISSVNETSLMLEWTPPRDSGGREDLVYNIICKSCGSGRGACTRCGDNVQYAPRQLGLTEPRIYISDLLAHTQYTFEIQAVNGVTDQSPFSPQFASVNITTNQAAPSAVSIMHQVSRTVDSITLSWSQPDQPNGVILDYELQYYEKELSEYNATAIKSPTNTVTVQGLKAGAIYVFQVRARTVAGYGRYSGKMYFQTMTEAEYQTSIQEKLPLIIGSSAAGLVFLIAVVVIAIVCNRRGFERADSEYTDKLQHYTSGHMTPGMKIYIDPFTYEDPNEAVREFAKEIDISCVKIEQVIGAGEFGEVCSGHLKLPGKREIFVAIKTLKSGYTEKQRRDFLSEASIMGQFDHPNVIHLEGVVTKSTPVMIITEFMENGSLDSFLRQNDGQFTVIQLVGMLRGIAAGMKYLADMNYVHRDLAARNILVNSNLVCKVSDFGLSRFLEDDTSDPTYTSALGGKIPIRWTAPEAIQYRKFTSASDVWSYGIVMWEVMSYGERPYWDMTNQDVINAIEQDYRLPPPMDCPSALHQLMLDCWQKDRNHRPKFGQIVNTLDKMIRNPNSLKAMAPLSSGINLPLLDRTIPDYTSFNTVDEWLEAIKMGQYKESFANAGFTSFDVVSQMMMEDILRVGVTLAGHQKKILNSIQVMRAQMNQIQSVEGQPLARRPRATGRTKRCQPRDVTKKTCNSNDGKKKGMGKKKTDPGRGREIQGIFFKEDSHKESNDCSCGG

Test [1] concerns the target Casein kinase I isoform epsilon (Homo sapiens, UniProt P49674).
Test [2] deals with Structural maintenance of chromosomes protein 2 (Homo sapiens, UniProt O95347).
Structural maintenance of chromosomes protein 2, sequence (O95347 whole entry): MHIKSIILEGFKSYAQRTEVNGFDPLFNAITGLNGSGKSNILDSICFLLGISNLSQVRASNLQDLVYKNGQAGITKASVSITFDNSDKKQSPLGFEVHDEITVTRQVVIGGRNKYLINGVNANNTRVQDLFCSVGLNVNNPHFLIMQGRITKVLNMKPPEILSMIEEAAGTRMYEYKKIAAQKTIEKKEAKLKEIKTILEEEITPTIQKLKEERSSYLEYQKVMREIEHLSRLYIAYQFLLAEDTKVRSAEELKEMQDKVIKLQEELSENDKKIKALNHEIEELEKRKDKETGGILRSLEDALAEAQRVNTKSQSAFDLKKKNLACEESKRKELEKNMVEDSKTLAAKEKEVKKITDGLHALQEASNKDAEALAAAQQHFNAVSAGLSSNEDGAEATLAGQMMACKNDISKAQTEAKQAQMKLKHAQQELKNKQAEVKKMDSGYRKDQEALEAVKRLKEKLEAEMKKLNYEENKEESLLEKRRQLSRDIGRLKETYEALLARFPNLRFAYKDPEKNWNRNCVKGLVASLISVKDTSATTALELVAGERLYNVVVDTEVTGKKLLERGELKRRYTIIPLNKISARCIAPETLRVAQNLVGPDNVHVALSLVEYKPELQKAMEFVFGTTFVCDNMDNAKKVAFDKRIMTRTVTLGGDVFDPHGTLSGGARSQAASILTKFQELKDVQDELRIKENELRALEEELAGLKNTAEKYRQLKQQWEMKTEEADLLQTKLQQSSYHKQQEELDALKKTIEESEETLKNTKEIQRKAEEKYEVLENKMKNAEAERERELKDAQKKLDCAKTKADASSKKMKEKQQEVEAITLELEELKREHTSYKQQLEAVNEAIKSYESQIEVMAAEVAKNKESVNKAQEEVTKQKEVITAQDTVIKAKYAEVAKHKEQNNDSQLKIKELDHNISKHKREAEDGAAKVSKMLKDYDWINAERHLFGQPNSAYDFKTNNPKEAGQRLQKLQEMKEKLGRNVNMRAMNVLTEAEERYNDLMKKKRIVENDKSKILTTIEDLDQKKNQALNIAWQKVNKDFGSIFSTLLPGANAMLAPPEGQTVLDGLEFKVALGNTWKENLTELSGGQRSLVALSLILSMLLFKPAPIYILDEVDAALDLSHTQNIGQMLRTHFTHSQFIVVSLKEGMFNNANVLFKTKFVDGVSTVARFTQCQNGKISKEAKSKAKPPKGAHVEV
Test [3] addresses Calcium/calmodulin-dependent protein kinase kinase 2 (Homo sapiens, UniProt Q96RR4).
The target of test [4] is T2, Serine/threonine-protein kinase Chk1 (Homo sapiens, UniProt O14757).
T2 sequence (O14757 whole entry): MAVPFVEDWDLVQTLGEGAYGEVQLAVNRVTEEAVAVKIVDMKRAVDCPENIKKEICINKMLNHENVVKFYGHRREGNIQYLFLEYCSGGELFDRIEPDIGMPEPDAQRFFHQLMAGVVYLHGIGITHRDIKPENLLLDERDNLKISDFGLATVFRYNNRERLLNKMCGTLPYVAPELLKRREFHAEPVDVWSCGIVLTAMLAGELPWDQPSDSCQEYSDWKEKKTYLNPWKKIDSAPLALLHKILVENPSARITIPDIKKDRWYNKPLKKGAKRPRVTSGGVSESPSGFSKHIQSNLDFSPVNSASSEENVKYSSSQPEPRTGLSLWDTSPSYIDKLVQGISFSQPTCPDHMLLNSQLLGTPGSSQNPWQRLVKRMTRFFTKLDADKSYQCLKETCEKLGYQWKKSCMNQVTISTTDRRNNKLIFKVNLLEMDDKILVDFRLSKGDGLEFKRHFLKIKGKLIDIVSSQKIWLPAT

In test [5] the target is Serine/threonine-protein kinase PAK 2 (Homo sapiens, UniProt Q13177).
Serine/threonine-protein kinase PAK 2, sequence (Q13177 whole entry): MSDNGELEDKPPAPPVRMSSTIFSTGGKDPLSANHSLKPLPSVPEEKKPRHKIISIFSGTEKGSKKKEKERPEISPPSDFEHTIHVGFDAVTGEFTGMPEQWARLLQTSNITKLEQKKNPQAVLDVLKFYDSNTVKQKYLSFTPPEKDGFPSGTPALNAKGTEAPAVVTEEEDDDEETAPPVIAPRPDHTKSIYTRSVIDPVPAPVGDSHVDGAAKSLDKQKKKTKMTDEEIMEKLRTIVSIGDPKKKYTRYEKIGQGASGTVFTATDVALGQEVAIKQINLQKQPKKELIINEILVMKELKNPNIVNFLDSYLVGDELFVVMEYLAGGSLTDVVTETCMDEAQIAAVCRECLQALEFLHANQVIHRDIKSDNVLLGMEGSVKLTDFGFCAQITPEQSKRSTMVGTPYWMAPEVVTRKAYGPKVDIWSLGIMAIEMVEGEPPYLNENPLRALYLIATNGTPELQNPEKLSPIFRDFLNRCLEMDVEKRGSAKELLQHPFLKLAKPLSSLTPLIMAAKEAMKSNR
In test [6] the target is T3, Serine/threonine-protein kinase ICK (Homo sapiens, UniProt Q9UPZ9).
T3 sequence (Q9UPZ9 whole entry): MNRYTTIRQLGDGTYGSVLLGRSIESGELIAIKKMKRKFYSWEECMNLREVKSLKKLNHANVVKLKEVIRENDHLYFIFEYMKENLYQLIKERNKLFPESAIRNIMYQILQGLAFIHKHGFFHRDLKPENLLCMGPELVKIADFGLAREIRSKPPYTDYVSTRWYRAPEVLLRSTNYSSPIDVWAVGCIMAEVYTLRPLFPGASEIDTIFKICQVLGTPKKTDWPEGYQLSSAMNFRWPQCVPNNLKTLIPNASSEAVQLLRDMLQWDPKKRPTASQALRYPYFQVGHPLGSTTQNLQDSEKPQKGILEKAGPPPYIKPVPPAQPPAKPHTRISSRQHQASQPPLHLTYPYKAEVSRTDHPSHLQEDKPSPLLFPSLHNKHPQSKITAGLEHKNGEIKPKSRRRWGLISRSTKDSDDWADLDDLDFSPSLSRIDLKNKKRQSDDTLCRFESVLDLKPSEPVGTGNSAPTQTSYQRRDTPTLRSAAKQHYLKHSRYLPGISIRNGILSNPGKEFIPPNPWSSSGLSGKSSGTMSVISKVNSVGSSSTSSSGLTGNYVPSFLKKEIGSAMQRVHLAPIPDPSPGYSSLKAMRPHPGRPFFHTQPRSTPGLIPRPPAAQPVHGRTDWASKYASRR

The next test addresses T4, Aurora kinase A (Homo sapiens, UniProt O14965).
T4 sequence (O14965 whole entry): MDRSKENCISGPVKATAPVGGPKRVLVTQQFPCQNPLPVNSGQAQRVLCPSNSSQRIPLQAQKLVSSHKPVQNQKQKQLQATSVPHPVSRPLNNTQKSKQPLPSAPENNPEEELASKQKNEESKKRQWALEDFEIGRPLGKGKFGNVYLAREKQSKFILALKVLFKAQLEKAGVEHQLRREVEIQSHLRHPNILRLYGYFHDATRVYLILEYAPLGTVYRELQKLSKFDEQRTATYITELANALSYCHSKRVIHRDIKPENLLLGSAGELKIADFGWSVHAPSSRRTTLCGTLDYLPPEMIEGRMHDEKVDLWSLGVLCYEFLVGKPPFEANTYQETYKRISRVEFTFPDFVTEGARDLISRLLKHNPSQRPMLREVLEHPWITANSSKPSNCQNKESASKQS

In test [7] the target is Cyclin-dependent kinase 1 (Homo sapiens, UniProt P06493).
Cyclin-dependent kinase 1, sequence (P06493 whole entry): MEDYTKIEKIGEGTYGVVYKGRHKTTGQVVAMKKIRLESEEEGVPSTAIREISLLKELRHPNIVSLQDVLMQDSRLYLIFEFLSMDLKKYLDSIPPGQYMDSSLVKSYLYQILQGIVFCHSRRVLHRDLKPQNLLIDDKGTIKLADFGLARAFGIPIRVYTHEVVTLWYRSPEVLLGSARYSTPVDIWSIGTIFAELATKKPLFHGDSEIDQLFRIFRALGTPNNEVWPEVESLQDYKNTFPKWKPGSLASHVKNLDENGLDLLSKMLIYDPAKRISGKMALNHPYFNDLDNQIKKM
The target of test [8] is Macrophage-stimulating protein receptor (Homo sapiens, UniProt Q04912).
Macrophage-stimulating protein receptor, sequence (Q04912 25-304 limits assumed): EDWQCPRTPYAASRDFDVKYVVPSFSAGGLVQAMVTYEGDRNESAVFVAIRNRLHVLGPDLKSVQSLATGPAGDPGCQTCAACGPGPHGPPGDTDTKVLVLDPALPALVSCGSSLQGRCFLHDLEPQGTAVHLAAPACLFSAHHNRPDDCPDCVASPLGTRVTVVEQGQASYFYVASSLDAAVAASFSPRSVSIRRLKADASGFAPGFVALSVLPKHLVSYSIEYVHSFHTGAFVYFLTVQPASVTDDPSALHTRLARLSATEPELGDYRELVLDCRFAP
Macrophage-stimulating protein receptor, sequence (Q04912 310-1400 limits assumed): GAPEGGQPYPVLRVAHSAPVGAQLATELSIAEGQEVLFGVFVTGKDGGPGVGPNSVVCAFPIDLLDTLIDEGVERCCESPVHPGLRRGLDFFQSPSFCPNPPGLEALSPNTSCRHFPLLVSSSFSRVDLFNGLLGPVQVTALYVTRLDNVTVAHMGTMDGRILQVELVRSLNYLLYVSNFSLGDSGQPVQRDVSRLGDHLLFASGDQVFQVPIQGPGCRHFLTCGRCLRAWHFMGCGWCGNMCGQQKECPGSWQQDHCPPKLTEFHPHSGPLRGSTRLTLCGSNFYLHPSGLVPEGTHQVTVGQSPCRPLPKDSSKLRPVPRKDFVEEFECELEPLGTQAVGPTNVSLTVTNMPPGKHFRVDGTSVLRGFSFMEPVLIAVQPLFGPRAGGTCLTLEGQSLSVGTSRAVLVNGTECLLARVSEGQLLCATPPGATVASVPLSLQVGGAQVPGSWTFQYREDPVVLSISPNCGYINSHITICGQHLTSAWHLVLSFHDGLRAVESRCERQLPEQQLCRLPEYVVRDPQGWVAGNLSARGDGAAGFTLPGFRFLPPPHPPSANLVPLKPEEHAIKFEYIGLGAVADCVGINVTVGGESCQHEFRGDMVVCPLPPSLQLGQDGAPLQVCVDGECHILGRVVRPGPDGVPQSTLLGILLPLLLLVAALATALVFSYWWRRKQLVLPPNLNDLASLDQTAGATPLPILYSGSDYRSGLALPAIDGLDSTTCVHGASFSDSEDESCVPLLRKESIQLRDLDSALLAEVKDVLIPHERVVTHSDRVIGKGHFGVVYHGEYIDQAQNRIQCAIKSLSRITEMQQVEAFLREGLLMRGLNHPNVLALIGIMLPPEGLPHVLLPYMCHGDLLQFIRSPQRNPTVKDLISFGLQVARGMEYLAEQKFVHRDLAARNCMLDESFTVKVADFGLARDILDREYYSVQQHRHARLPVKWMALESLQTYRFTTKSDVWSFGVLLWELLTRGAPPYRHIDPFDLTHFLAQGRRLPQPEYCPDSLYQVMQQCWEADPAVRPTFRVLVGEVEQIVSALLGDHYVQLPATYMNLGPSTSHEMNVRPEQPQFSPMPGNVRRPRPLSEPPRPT
Note: in the data inactive means no Kd found up to 30 µM.

Calcium/calmodulin-dependent protein kinase kinase 2, sequence (Q96RR4 whole entry): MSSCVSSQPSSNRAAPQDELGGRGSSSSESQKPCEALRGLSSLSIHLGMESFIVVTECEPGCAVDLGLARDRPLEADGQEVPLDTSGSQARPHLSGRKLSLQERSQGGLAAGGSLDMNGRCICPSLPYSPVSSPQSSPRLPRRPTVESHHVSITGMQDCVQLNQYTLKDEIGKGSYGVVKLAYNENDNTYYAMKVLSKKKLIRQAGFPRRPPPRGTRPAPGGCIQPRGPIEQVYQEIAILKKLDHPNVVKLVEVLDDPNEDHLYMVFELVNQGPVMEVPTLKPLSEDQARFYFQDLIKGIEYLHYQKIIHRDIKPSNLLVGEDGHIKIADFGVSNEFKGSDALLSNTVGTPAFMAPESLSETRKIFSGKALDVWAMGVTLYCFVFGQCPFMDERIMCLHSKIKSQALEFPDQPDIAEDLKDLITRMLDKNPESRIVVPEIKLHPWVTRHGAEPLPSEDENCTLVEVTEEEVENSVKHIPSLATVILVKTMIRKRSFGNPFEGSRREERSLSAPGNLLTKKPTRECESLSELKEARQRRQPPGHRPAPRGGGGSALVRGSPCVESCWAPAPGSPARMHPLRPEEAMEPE
Casein kinase I isoform epsilon, sequence (P49674 whole entry, canonical isoform): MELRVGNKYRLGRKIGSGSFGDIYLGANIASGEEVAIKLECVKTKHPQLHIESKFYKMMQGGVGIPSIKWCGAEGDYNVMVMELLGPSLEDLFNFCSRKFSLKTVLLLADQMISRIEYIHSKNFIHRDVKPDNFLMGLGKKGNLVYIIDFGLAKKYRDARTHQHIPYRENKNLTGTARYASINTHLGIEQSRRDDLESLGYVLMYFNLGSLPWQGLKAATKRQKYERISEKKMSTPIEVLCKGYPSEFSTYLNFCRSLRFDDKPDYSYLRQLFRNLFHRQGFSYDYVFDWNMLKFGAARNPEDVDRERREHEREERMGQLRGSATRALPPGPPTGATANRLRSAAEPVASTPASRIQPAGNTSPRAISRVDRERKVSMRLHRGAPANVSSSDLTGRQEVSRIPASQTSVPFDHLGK

As for `CCS(=O)(=O)N1CC(CC#N)(n2cc(-c3ncnc4[nH]ccc34)cn2)C1` [BARICITINIB], the Kd (at Ephrin type-B receptor 2; in [1]; in test [2]; in test [3]; in test [4]; in test [5]) was > 30 µM (inactive) each time. Moreover, the Kd (in test [6]; at Aurora kinase A; in test [7]; in test [8]) was > 30 µM (inactive) throughout.
Take `Cc1ccc(NC(=O)c2ccc(CN3CC[C@H](N(C)C)C3)c(C(F)(F)F)c2)cc1Nc1nccc(-c2cncnc2)n1` [BAFETINIB]: the Kd is 53.2 µM (active) at Ephrin type-B receptor 2; > 30 µM (inactive) in [1]; > 30 µM (inactive) in [2]; > 30 µM (inactive) in [3]; > 30 µM (inactive) in test [4]; > 30 µM (inactive) in test [5]. In addition, the Kd (in test [6]; at Aurora kinase A; in test [7]; in test [8]) was > 30 µM (inactive) in each case.
For the compound `Cc1ccc(-n2nc(C(C)(C)C)cc2NC(=O)NCc2cc(F)ccc2Oc2ccc3c(cnn3CCO)c2)cc1` [PEXMETINIB], the Kd (at Ephrin type-B receptor 2; in [1]; in test [2]; in test [3]; in test [4]; in test [5]) was > 30 µM (inactive) each time. For the same compound, the Kd (in [6]; at Aurora kinase A; in [7]; in [8]) was > 30 µM (inactive) throughout.
For `CNS(=O)(=O)Nc1nccc(Cc2c(C)c3ccc(Oc4ncccn4)cc3oc2=O)c1F` [AVUTOMETINIB], the Kd (on Ephrin type-B receptor 2; in test [1]; in [2]; in test [3]; in test [4]; in test [5]) was > 30 µM (inactive) throughout. Besides, the Kd (in [6]; on Aurora kinase A; in [7]; in test [8]) was > 30 µM (inactive) in each case.
As to `COc1ccc(-c2ccc3c(N4CCOC[C@@H]4C)nc(N4CCOC[C@@H]4C)nc3n2)cc1CO` [AZD-8055], the Kd (on Ephrin type-B receptor 2; in test [1]; in test [2]; in test [3]; in test [4]; in [5]) was > 30 µM (inactive) each time. Moreover, the Kd (in [6]; on Aurora kinase A; in test [7]; in test [8]) was > 30 µM (inactive) each time.
In the case of `CN1CCC(CNc2ccc3ncc(-c4cccc(OC(F)(F)F)c4)n3n2)CC1` [SGI-1776], the Kd (at Ephrin type-B receptor 2; in [1]; in [2]; in [3]; in [4]; in test [5]) was > 30 µM (inactive) throughout. The Kd (in test [6]; at Aurora kinase A; in test [7]; in test [8]) was > 30 µM (inactive) each time.
For `CC(=O)Nc1cccc(-n2c(=O)n(C3CC3)c(=O)c3c(Nc4ccc(I)cc4F)n(C)c(=O)c(C)c32)c1` [TRAMETINIB], the Kd (on Ephrin type-B receptor 2; in [1]; in test [2]; in [3]; in test [4]; in [5]) was > 30 µM (inactive) in each case. Also, the Kd (in test [6]; on Aurora kinase A; in test [7]; in test [8]) was > 30 µM (inactive) throughout.
As to `CCCS(=O)(=O)Nc1ccc(F)c(C(=O)c2c[nH]c3ncc(-c4ccc(Cl)cc4)cc23)c1F` [VEMURAFENIB], the Kd (on Ephrin type-B receptor 2; in test [1]; in [2]; in [3]; in [4]; in test [5]) was > 30 µM (inactive) throughout. The Kd (in [6]; on Aurora kinase A; in test [7]; in test [8]) was > 30 µM (inactive) throughout.
Turning to `COCCNCc1ccc(-c2cc3nccc(Oc4ccc(NC(=S)NC(=O)Cc5ccc(F)cc5)cc4F)c3s2)nc1` [GLESATINIB], the Kd (on Ephrin type-B receptor 2; in test [1]; in [2]; in [3]; in test [4]; in [5]) was > 30 µM (inactive) throughout. Further, the Kd is > 30 µM (inactive) in test [6], > 30 µM (inactive) on Aurora kinase A, > 30 µM (inactive) in [7] and 2.32 µM (active) in test [8].
For the compound `COC(=O)[C@@]1(O)C[C@H]2O[C@]1(C)n1c3ccccc3c3c4c(c5c6ccccc6n2c5c31)C(=O)NC4` [K-252A], the Kd was > 30 µM (inactive) at Ephrin type-B receptor 2; > 30 µM (inactive) in test [1]; > 30 µM (inactive) in [2]; 2.28 µM (active) in test [3]; 0.122 µM (active) in [4]; > 30 µM (inactive) in test [5]. In addition, the Kd in test [6] is > 30 µM (inactive); at Aurora kinase A it was 0.02 µM (active); in test [7], > 30 µM (inactive); in test [8], > 30 µM (inactive).
